In the NIST ThermoML archive (doi:10.1021/acs.jced.7b00176):

Assay: xn = mol fraction of the nth substance listed
Details: Liquid, Vibrating tube method

COCCOCCOC [2,5,8-trioxanonane] + CCCCO
Details | mass density [kg/m3]
323.26 K, 30000 kPa, x2 = 0.7308 | 855.36
323.27 K, 100 kPa, x2 = 0.3116 | 884.02
323.27 K, 5000 kPa, x2 = 0.3116 | 888.39
323.27 K, 40000 kPa, x2 = 0.7308 | 862.01
323.27 K, 60000 kPa, x2 = 0.7308 | 874.24
323.27 K, 80000 kPa, x2 = 0.7308 | 885.1
323.27 K, 100000 kPa, x2 = 0.7308 | 894.94
323.28 K, 1000 kPa, x2 = 0.3116 | 884.84
323.28 K, 10000 kPa, x2 = 0.3116 | 892.57
323.28 K, 20000 kPa, x2 = 0.3116 | 900.61
323.28 K, 30000 kPa, x2 = 0.3116 | 907.85
323.28 K, 40000 kPa, x2 = 0.3116 | 914.76
323.28 K, 80000 kPa, x2 = 0.3116 | 938.32
323.29 K, 100 kPa, x2 = 0.8787 | 809.04
323.29 K, 1000 kPa, x2 = 0.8787 | 809.88
323.29 K, 5000 kPa, x2 = 0.8787 | 813.32
323.29 K, 10000 kPa, x2 = 0.8787 | 817.49
323.29 K, 20000 kPa, x2 = 0.8787 | 825.25
323.29 K, 30000 kPa, x2 = 0.8787 | 832.38
323.29 K, 40000 kPa, x2 = 0.8787 | 838.96
323.29 K, 60000 kPa, x2 = 0.3116 | 927.16
323.29 K, 60000 kPa, x2 = 0.8787 | 850.97
323.29 K, 80000 kPa, x2 = 0.8787 | 861.63
323.29 K, 100000 kPa, x2 = 0.3116 | 948.49
323.29 K, 100010 kPa, x2 = 0.8787 | 871.34
342.49 K, 100 kPa, x2 = 0 | 894.03
342.49 K, 1000 kPa, x2 = 0 | 894.98
342.49 K, 5000 kPa, x2 = 0 | 898.96
342.5 K, 10000 kPa, x2 = 0 | 903.66
342.5 K, 20000 kPa, x2 = 0 | 912.57
342.51 K, 30000 kPa, x2 = 0 | 920.68
342.51 K, 40000 kPa, x2 = 0 | 928.18
342.51 K, 60000 kPa, x2 = 0 | 941.77
342.51 K, 80000 kPa, x2 = 0 | 953.82
342.52 K, 100000 kPa, x2 = 0 | 964.68
342.99 K, 100 kPa, x2 = 0.5469 | 838.63
343 K, 1000 kPa, x2 = 0.5469 | 839.58
343 K, 5000 kPa, x2 = 0.5469 | 843.51
343 K, 10000 kPa, x2 = 0.5469 | 848.2
343.01 K, 20000 kPa, x2 = 0.5469 | 856.98
343.01 K, 30000 kPa, x2 = 0.5469 | 864.93
343.01 K, 40000 kPa, x2 = 0.5469 | 872.29
343.01 K, 60000 kPa, x2 = 0.5469 | 885.57
343.01 K, 80000 kPa, x2 = 0.5469 | 897.36
343.02 K, 100 kPa, x2 = 0.7308 | 814.17
343.02 K, 100000 kPa, x2 = 0.5469 | 907.94
343.03 K, 1000 kPa, x2 = 0.7308 | 815.11
343.03 K, 5000 kPa, x2 = 0.7308 | 819.06
343.03 K, 80000 kPa, x2 = 0.8787 | 849.39
343.04 K, 100 kPa, x2 = 0.3116 | 864.74
343.04 K, 100 kPa, x2 = 0.8787 | 792.02
343.04 K, 1000 kPa, x2 = 0.3116 | 865.7
343.04 K, 1000 kPa, x2 = 0.8787 | 792.98
343.04 K, 5000 kPa, x2 = 0.8787 | 796.88
343.04 K, 10000 kPa, x2 = 0.7308 | 823.7
343.04 K, 10000 kPa, x2 = 0.8787 | 801.5
343.04 K, 20000 kPa, x2 = 0.7308 | 832.39
343.04 K, 20000 kPa, x2 = 0.8787 | 810.09
343.04 K, 30000 kPa, x2 = 0.7308 | 840.28
343.04 K, 30000 kPa, x2 = 0.8787 | 817.86
343.04 K, 40000 kPa, x2 = 0.7308 | 847.55
343.04 K, 40000 kPa, x2 = 0.8787 | 825.03
343.04 K, 60000 kPa, x2 = 0.7308 | 860.64
343.04 K, 60000 kPa, x2 = 0.8787 | 837.96
343.04 K, 80000 kPa, x2 = 0.7308 | 872.22
343.04 K, 100000 kPa, x2 = 0.7308 | 882.62
343.04 K, 100000 kPa, x2 = 0.8787 | 859.63
343.05 K, 5000 kPa, x2 = 0.3116 | 869.66
343.05 K, 10000 kPa, x2 = 0.3116 | 874.4
343.06 K, 20000 kPa, x2 = 0.3116 | 883.26
343.06 K, 30000 kPa, x2 = 0.3116 | 891.31
343.06 K, 40000 kPa, x2 = 0.3116 | 898.79
343.06 K, 60000 kPa, x2 = 0.3116 | 912.24
343.07 K, 80000 kPa, x2 = 0.3116 | 924.13
343.08 K, 100000 kPa, x2 = 0.3116 | 934.89
362.51 K, 100 kPa, x2 = 0 | 873.45
362.51 K, 1000 kPa, x2 = 0 | 874.46
362.51 K, 5000 kPa, x2 = 0 | 879.02
362.52 K, 10000 kPa, x2 = 0 | 884.41
362.52 K, 20000 kPa, x2 = 0 | 894.33
362.52 K, 30000 kPa, x2 = 0 | 903.29
362.52 K, 40000 kPa, x2 = 0 | 911.53
362.53 K, 60000 kPa, x2 = 0 | 926.3
362.53 K, 80000 kPa, x2 = 0 | 939.26
362.53 K, 100000 kPa, x2 = 0 | 950.89
362.67 K, 100 kPa, x2 = 0.5469 | 819.52
362.68 K, 1000 kPa, x2 = 0.5469 | 820.52
362.68 K, 5000 kPa, x2 = 0.5469 | 825.03
362.68 K, 10000 kPa, x2 = 0.5469 | 830.34
362.69 K, 100 kPa, x2 = 0.8787 | 774.25
362.69 K, 1000 kPa, x2 = 0.8787 | 775.26
362.69 K, 5000 kPa, x2 = 0.8787 | 779.7
362.69 K, 20000 kPa, x2 = 0.5469 | 840.09
362.69 K, 30000 kPa, x2 = 0.5469 | 848.85
362.69 K, 40000 kPa, x2 = 0.5469 | 856.9
362.69 K, 60000 kPa, x2 = 0.5469 | 871.26
362.69 K, 80000 kPa, x2 = 0.5469 | 883.92
362.7 K, 5000 kPa, x2 = 0.3116 | 850.69
362.7 K, 10000 kPa, x2 = 0.8787 | 784.88
362.7 K, 20000 kPa, x2 = 0.8787 | 794.41
362.7 K, 30000 kPa, x2 = 0.8787 | 802.93
362.7 K, 40000 kPa, x2 = 0.8787 | 810.75
362.7 K, 60000 kPa, x2 = 0.8787 | 824.68
362.7 K, 100000 kPa, x2 = 0.5469 | 895.2
362.71 K, 100 kPa, x2 = 0.3116 | 845.12
362.71 K, 100 kPa, x2 = 0.7308 | 795.72
362.71 K, 1000 kPa, x2 = 0.3116 | 846.14
362.71 K, 10000 kPa, x2 = 0.3116 | 856.03
362.71 K, 20000 kPa, x2 = 0.3116 | 865.91
362.71 K, 30000 kPa, x2 = 0.3116 | 874.79
362.71 K, 80000 kPa, x2 = 0.8787 | 836.92
362.71 K, 100000 kPa, x2 = 0.8787 | 847.79
362.72 K, 1000 kPa, x2 = 0.7308 | 796.73
362.72 K, 5000 kPa, x2 = 0.7308 | 801.19
362.72 K, 10000 kPa, x2 = 0.7308 | 806.44
362.72 K, 20000 kPa, x2 = 0.7308 | 816.08
362.72 K, 30000 kPa, x2 = 0.7308 | 824.74
362.72 K, 40000 kPa, x2 = 0.3116 | 882.96
362.72 K, 40000 kPa, x2 = 0.7308 | 832.66
362.72 K, 60000 kPa, x2 = 0.3116 | 897.55
362.72 K, 80000 kPa, x2 = 0.3116 | 910.38
362.72 K, 100000 kPa, x2 = 0.3116 | 921.84
362.73 K, 60000 kPa, x2 = 0.7308 | 846.83
362.73 K, 80000 kPa, x2 = 0.7308 | 859.23
362.73 K, 100000 kPa, x2 = 0.7308 | 870.28
